Several values for one entry are separate records, joined by “and”; a condition that tells them apart may be missing. Equal entries are not always repeated. Structures can show the parent of a compound that is named as a salt. Where a SMILES comes first, the peptide text is derived from it.
Test system: cytochrome c
Type: cell-based, mouse
Conditions: not given

SMILES | cyt c | cyt c (composite Z-score vs DMSO mock-treated wells) | cyt c (composite Z-score vs DMSO) | cyt c (composite Z-score)
Cc1cn([C@H]2C[C@H](N=[N+]=[N-])[C@@H](CO)O2)c(=O)[nH]c1=O [zidovudine] | 0.611 | 0.637 |  | 
COc1ccc2c3c1O[C@H]1[C@@H](O)CC=C4[C@@H](C2)N(C)CC[C@]431 [neopine] | 0.421 |  |  | 
Clc1ccccc1CN1CCc2sccc2C1 [ticlopidine] |  |  | −0.316 | 
c1ccc(C2CN3CCSC3=N2)cc1 (stereo not shown) [tetramisole] | 0.209 |  |  | 
CN1CCN2c3ccccc3Cc3ccccc3C2C1 (stereo not shown) [mianserin] | 0.027 |  |  | 
COCCCC/C(=N\OCCN)c1ccc(C(F)(F)F)cc1 [fluvoxamine] | 0.483 |  |  | 
CNC(=O)CSP(=S)(OC)OC [dimethoate] | 0.837 |  |  | 
CO[C@H]1/C=C/O[C@@]2(C)Oc3c(C)c(O)c4c(O)c(c(/C=N/N5CCN(C)CC5)c(O)c4c3C2=O)NC(=O)/C(C)=C\C=C\[C@H](C)[C@H](O)[C@@H](C)[C@@H](O)[C@@H](C)[C@H](OC(C)=O)[C@@H]1C [rifampicin] | 0.319 |  |  | 
NC(=O)c1ncn([C@@H]2O[C@H](CO)[C@@H](O)[C@H]2O)n1 [ribavirin] | −0.336 |  |  | 
COc1cc(C2Oc3cc([C@H]4Oc5cc(O)cc(O)c5C(=O)[C@@H]4O)ccc3OC2CO)ccc1O (stereo partly shown) [silybin] | 0.150 |  |  | 
CN(C/C=C/c1ccccc1)Cc1cccc2ccccc12 [naftifine] | 0.645 |  |  | 
CC(C)NCC(O)COc1ccc(CC(N)=O)cc1 (stereo not shown) [atenolol, reference compound] |  |  | 0.403 | 
OC(Cn1cncn1)(Cn1cncn1)c1ccc(F)cc1F [fluconazole] |  |  | 0.741 | 
CC[N+](C)(C)Cc1ccccc1Br [bretylium] | 0.560 |  |  | 0.295
OCCN1CCN(CCCN2c3ccccc3Sc3ccc(C(F)(F)F)cc32)CC1 [fluphenazine] |  | −0.074 |  | 
CC(C)c1cccc(C(C)C)c1O [propofol] |  |  | 0.242 | 
O=c1c(-c2ccc(O)cc2)coc2cc(O)cc(O)c12 [genistein] |  |  | 0.295 | 
CC(=O)Nc1nnc(S(N)(=O)=O)s1 [acetazolamide] |  |  | 0.698 and 0.613 | 
CC(C)(C(=O)O)c1ccc(C(O)CCCN2CCC(C(O)(c3ccccc3)c3ccccc3)CC2)cc1 (stereo not shown) [fexofenadine] | −0.751 |  |  | 
CNCCC=C1c2ccccc2CCc2ccccc21 [nortriptyline] |  |  | 0.157 and 0.136 | 
Cc1ncc(C[n+]2csc(CCO)c2C)c(N)n1 [thiamine] |  |  |  | 0.284
Cc1onc(-c2c(Cl)cccc2Cl)c1C(=O)N[C@@H]1C(=O)N2[C@@H]1SC(C)(C)[C@@H]2C(=O)O [dicloxacillin sodium salt] | 0.836 |  |  | 
CN/C(=N/CCSCc1nc[nH]c1C)NC#N [cimetidine] | 0.794 and 0.587 |  |  | 
O=C1CC2(CCCC2)CC(=O)N1CCCCN1CCN(c2ncccn2)CC1 [buspirone] | 0.228 |  |  | 
O=C1C[C@@H]2OCC=C3CN4CC[C@]56c7ccccc7N1[C@H]5[C@H]2[C@H]3C[C@H]46 [strychnine] |  | 0.031 |  | 

SMILES | cyt c | cyt c (composite Z-score vs DMSO mock-treated wells) | cyt c (composite Z-score vs DMSO) | cyt c (composite Z-score)
O=C(O)c1cc(O)ccc1O [gentisic acid] |  | 0.210 |  | 
Cn1c(=O)c2[nH]cnc2n(C)c1=O [aminophylline] |  |  | 0.177 | 
O=C1NS(=O)(=O)c2ccccc21 [saccharin] |  |  | 0.336 | 
O=C(CCCN1CC=C(n2c(=O)[nH]c3ccccc32)CC1)c1ccc(F)cc1 [droperidol] |  |  | 0.270 and 0.161 | 
O=P1(N(CCCl)CCCl)NCCCO1 (stereo not shown) [cyclophosphamide] | −0.088 |  |  | 
[H]/N=C(/N)N/C(=N/[H])NCCc1ccccc1 [phenformin] | 0.241 |  |  | 
CN1[C@@H]2CC[C@H]1C[C@@H](OC(=O)[C@H](CO)c1ccccc1)C2 [hyoscyamine] | 0.319 | 0.235 |  | 
CN1CCCCC1CCN1c2ccccc2Sc2ccc([S+](C)[O-])cc21 (stereo not shown) [mesoridazine] |  |  |  | −0.121
COc1ccc(-c2cc(=O)c3c(OC)c(OC)c(OC)c(OC)c3o2)cc1OC [nobiletin] | 0.396 |  |  | 
CC(=O)N[C@@H](CC(C)C)C(=O)O [N-acetyl-L-leucine] | 0.648 |  |  | 
CCN(CC)CCOc1ccc(C(=C(Cl)c2ccccc2)c2ccccc2)cc1 [clomiphene] | 0.699 | 0.025 |  | 
CC(C)c1c(C(=O)Nc2ccccc2)c(-c2ccccc2)c(-c2ccc(F)cc2)n1CC[C@@H](O)C[C@@H](O)CC(=O)O [atorvastatin, reference compound] | −1.023 |  |  | 
CCN(CC)CC#CCOC(=O)C(O)(c1ccccc1)C1CCCCC1 (stereo not shown) [oxybutynin] | −0.352 |  |  | 
CCCSP(=O)(OCC)SCCC [ethoprop] | 0.271 |  |  | 
CCC1(c2ccccc2)C(=O)NCNC1=O [primidone] | 0.296 and 0.193 |  |  | 
O=c1ccc2ccc(O)cc2o1 [umbelliferone] |  |  |  | −0.272
CCCC(C)C1(CC)C(=O)NC(=S)NC1=O (stereo not shown) [thiopental] |  |  | −0.299 | 
CN(C)CCCSC(=N)N [dimaprit] |  |  |  | −0.184
C[N+]1(C)CCC(OC(=O)C(O)(c2ccccc2)C2CCCC2)C1 (stereo not shown) [glycopyrrolate] | 0.260 |  |  | 
O=C([O-])c1ccccc1O.[Na+] [sodium salicylate] | 0.607 |  |  | 
C[N+](C)(C)CCO [choline] |  |  | 0.713 | 
CC1(C)S[C@@H]2[C@H](NC(=O)C3(N)CCCCC3)C(=O)N2[C@H]1C(=O)O [cyclacillin] |  |  |  | −0.886
COc1ccc(-c2ccc(=N)n(CCCC(=O)O)n2)cc1 [gabazine] | −0.094 |  |  | 
Nc1cc(C(Cl)=C(Cl)Cl)c(S(N)(=O)=O)cc1S(N)(=O)=O [clorsulon] | −0.186 |  |  | 

Same assay, conditions: composite Z-score vs mock-treated (DMSO) wells; concentration of each compound in μM

SMILES | cyt c
O=C1C(O)=C([C@H]2CC[C@H](c3ccc(Cl)cc3)CC2)C(=O)c2ccccc21 [atovaquone] | −0.124
O=C(NC(Cc1cc(=O)[nH]c2ccccc12)C(=O)O)c1ccc(Cl)cc1 (stereo not shown) [rebamipide] | −0.372
O=C(O)c1cn(-c2ccc(F)cc2)c2cc(N3CCNCC3)c(F)cc2c1=O [sarafloxacin] | 0.290
CC1(C)O[C@@H]2[C@@H](CO[C@@]3(COS(N)(=O)=O)OC(C)(C)O[C@@H]23)O1 [topiramate] | −0.093
CO[C@H]1/C=C/O[C@@]2(C)Oc3c(C)c(O)c4c(O)c(c5c(nc6cc(C)ccn65)c4c3C2=O)NC(=O)/C(C)=C\C=C\[C@H](C)[C@H](O)[C@@H](C)[C@@H](O)[C@@H](C)[C@H](OC(C)=O)[C@@H]1C [rifaximin] | −0.471
NCC(CC(=O)O)c1ccc(Cl)s1 (stereo not shown) [4-amino-3-(5-chlorothien-2-yl)butanoic acid] | 0.593
CC(C)=CCC[C@@H](C)[C@H]1CC[C@@]2(C)C3=C(CC[C@]12C)[C@@]1(C)CC[C@H](O)C(C)(C)[C@@H]1CC3 [lanosterol] | 0.383
NCCCC[C@H](N)C(=O)N[C@@H](Cc1ccccc1)C(=O)N[C@@H](Cc1ccc(O)cc1)C(=O)O [lysylphenylalanyltyrosine] (H-Lys-Phe-Tyr-OH) | 0.240
COc1ccc(-c2cc(=O)c3c(OC)cc(O)cc3o2)cc1 [5,4′-dimethoxy-7-hydroxyflavone] | 0.173
CC(O)Cn1cnc2c1c(=O)n(C)c(=O)n2C (stereo not shown) [proxyphylline] | −0.574
CC[C@H]1OC(=O)C[C@@H](O)[C@H](C)[C@@H](O[C@@H]2O[C@H](C)[C@@H](O[C@H]3C[C@@](C)(O)[C@@H](O)[C@H](C)O3)[C@H](N(C)C)[C@H]2O)[C@@H](CC=O)C[C@@H](C)C(=O)/C=C/C(C)=C/[C@@H]1CO[C@@H]1O[C@H](C)[C@@H](O)[C@@H](OC)[C@H]1OC [tylosin] | −0.007
COc1ccccc1N1CCN(CC(O)COc2cccc3ccccc23)CC1 (stereo not shown) [naftopidil] | 0.382
CCOC(=O)C1=C(C)NC(C)=C(C(=O)OC)C1c1cccc(Cl)c1Cl (stereo not shown) [felodipine] | −0.956
COC(=O)C1=CO[C@@H](C)[C@@H]2CN3CCc4c([nH]c5ccccc45)[C@@H]3C[C@H]12 [tetrahydroalstonine] | 1.439
CNCC(O)c1ccc(OC(=O)C(C)(C)C)c(OC(=O)C(C)(C)C)c1 (stereo not shown) [dipivefrin] | −0.180
COCC(=O)Nc1c(I)c(C(=O)NCC(O)CO)c(I)c(C(=O)N(C)CC(O)CO)c1I (stereo not shown) [iopromide] | 0.263
COc1ccccc1OCCNCC(O)COc1cccc2[nH]c3ccccc3c12 (stereo not shown) [carvedilol] | −4.745
CC[C@H](C)C(=O)O[C@H]1C[C@H](O)C=C2C=C[C@H](C)[C@H](CC[C@@H](O)C[C@@H](O)CC(=O)O)[C@H]21 [pravastatin, reference compound] | 0.972
CCc1cccc(CC)c1NC(=O)CN(CC(=O)O)CC(=O)O [etifenin] | 0.092
CC[C@H]1OC(=O)[C@H](C)[C@@H](O[C@H]2C[C@@](C)(OC)[C@@H](O)[C@H](C)O2)[C@H](C)[C@@H](O[C@@H]2O[C@H](C)C[C@H](N(C)C)[C@H]2O)[C@](C)(O)C[C@@H](C)[C@@H]2N[C@@H](COCCOC)O[C@H]([C@H]2C)[C@]1(C)O [dirithromycin] | 0.356
CC(C)NCC(O)c1ccc(NS(C)(=O)=O)cc1 (stereo not shown) [sotalol] | 0.501
CC(NCCc1ccc(O)cc1)C(O)c1ccc(O)cc1 (stereo not shown) [ritodrine] | −0.072
COC(=O)C1=C(C)NC(C)=C(C(=O)OC(C)C)C1c1cccc2nonc12 (stereo not shown) [isradipine] | 0.236
CCc1ccc(CCOc2ccc(CC3SC(=O)NC3=O)cc2)nc1 (stereo not shown) [pioglitazone] | −0.742
CC[C@H]1OC(=O)[C@H](C)C(=O)[C@H](C)[C@@H](O[C@@H]2O[C@H](C)C[C@H](N(C)C)[C@H]2O)[C@](C)(OC)C[C@@H](C)C(=O)[C@H](C)[C@H]2N(CCCCn3cnc(-c4cccnc4)c3)C(=O)O[C@]12C [telithromycin] | −0.023

Same assay, conditions: normalized score (composite Z-score vs DMSO mock-treated wells); compound concentration (μM)

SMILES | cyt c
CCOC(=O)Oc1c(OC)cc(C(=O)O[C@@H]2C[C@@H]3CN4CCc5c([nH]c6cc(OC)ccc56)[C@H]4C[C@@H]3[C@H](C(=O)OC)[C@H]2OC)cc1OC [syrosingopine] | 1.051

— patent publication US20090143279A1 (priority 2007, published 2009)
